The text below walks through data of patent US20100278932A1, “POLYMER MICELLES CONTAINING SN-38 FOR THE TREATMENT OF CANCER” (Intezyne Technologies, Incorporated, priority 2009, published 2010).

Counter-ions that a name gives are not always drawn.

The conditions of series [1]: cited from earlier work.
Series [2] in a line: Pharmacokinetics in cannulated rats. It counts as in vivo. To be noted: 5 mg/kg (SN-38 equivalent mass) fast IV bolus, SN-38 in plasma, IT-141 of Example 40.
Protocol: Pharmacokinetic data was generated from cannulated rats. […] Each group consisted of three rats.
150 μL of the supernatant was transferred to a HPLC vial for analysis. […] 150 μL of extraction solution was then added and vortexed for an additional 10 minutes. […] 150 μL of the supernatant was transferred to a HPLC vial for analysis. […] The mobile phase was 70% buffer and 30% acetonitrile (buffer=10 mM sodium phosphate with 0.1% triethyl amine adjusted to pH 3.5) flowing at 0.8 mL/min with an 18 minute run time. A calibration curve was constructed from the area under the curve of each of the seven standards and the SN-38 of each of the unknown samples determined from the curve.

As for `CCc1c2c(nc3ccc(O)cc13)-c1cc3c(c(=O)n1C2)COC(=O)[C@]3(O)CC` [SN-38, 7-ethyl-10-hydroxycamptothecin], the “solubility in aqueous solutions” value in series [1] is given as “exceedingly insoluble”.
In the case of `CCc1c2c(nc3ccc(OC(=O)N4CCC(N5CCCCC5)CC4)cc13)-c1cc3c(c(=O)n1C2)COC(=O)[C@]3(O)CC` [CPT-11, irinotecan hydrochloride], the AUC in series [2] turned out to be 0.26 hours*μg SN-38/mL.
